# Data as given in ChEMBL document CHEMBL1201862, “PubChem BioAssay data set” (2004).
#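 96-well plates; 48 h exposure; 5 concentrations. Endpoints by linear interpolation between flanking doses. Not reached: highest tested concentration assigned. GI50 = concentration required for 50% inhibition of growth.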 Activity calls are given as the source filed them. Cut-off read from the data, not from the text of the source: active = GI50 up to about 1.1 µM and inactive = higher.
# Assays:
# Test in all cases: NCI anticancer screen, dose series, 48 h
# [1] = test system: A498
# [2] = test system: CCRF-CEM
# [3] = test system: DU-145
# [4] = test system: HOP-92
# [5] = test system: K562
# [6] = test system: LOX IMVI
# [7] = test system: MCF7
# [8] = test system: NCI-H23
# [9] = test system: NCI-H460
# [10] = test system: NCI-H522
# [11] = test system: OVCAR-8
# [12] = test system: PC-3
# [13] = test system: SK-MEL-5
# [14] = test system: SK-OV-3
# [15] = test system: SNB-19
# [16] = test system: SNB-75
# [17] = test system: T47D
# [18] = test system: UACC-62
# [19] = test system: UO-31
# [20] = test system: MOLT-4
Structure (SMILES),GI50 [1],GI50 [2],GI50 [3],GI50 [4],GI50 [5],GI50 [6],GI50 [7],GI50 [8],GI50 [9],GI50 [10],GI50 [11],GI50 [12],GI50 [13],GI50 [14],GI50 [15],GI50 [16],GI50 [17],GI50 [18],GI50 [19],GI50 [20]
CC(C)N(Cc1ccccc1)S(=O)(=O)c1nc(C(C)(C)C)n[nH]1,> 100 µM (inactive),> 100 µM (inactive),> 100 µM (inactive),> 100 µM (inactive),> 100 µM (inactive),> 100 µM (inactive),> 100 µM (inactive),> 100 µM (inactive),> 100 µM (inactive),> 100 µM (inactive),> 100 µM (inactive),> 100 µM (inactive),> 100 µM (inactive),> 100 µM (inactive),> 100 µM (inactive),> 100 µM (inactive),92 µM (inactive),> 100 µM (inactive),> 100 µM (inactive),
O=C(O)CSc1ccc(N=C=S)cc1,52.2 µM (inactive),12.6 µM (inactive),75.2 µM (inactive),> 100 µM (inactive),,48.6 µM (inactive),56 µM (inactive),78.9 µM (inactive),56.9 µM (inactive),19.1 µM (inactive),71.4 µM (inactive),73.3 µM (inactive),37.8 µM (inactive),> 100 µM (inactive),> 100 µM (inactive),> 100 µM (inactive),72.4 µM (inactive),61 µM (inactive),> 100 µM (inactive),20.4 µM (inactive)
CC(=O)c1ccc2c3c1[C@@H]1O[C@@H]1c1cccc(c1-3)[C@@H]1O[C@H]21,21.5 µM (inactive),2.86 µM (inactive),8.39 µM (inactive),13.3 µM (inactive),4.47 µM (inactive),2.07 µM (inactive),4 µM (inactive),7 µM (inactive),,5.4 µM (inactive),3.94 µM (inactive),17.3 µM (inactive),11.7 µM (inactive),28.6 µM (inactive),20.3 µM (inactive),13.5 µM (inactive),6.76 µM (inactive),14 µM (inactive),6.84 µM (inactive),14.1 µM (inactive)
Nc1nc(-c2ccccc2)nc2oc(-c3cccs3)nc12,> 100 µM (inactive),> 100 µM (inactive),> 100 µM (inactive),> 100 µM (inactive),> 100 µM (inactive),> 100 µM (inactive),> 100 µM (inactive),> 100 µM (inactive),> 100 µM (inactive),> 100 µM (inactive),> 100 µM (inactive),> 100 µM (inactive),> 100 µM (inactive),,> 100 µM (inactive),> 100 µM (inactive),> 100 µM (inactive),> 100 µM (inactive),> 100 µM (inactive),> 100 µM (inactive)
COc1ccc(-n2c(N)c(C#N)c(C#N)c2-c2ccccc2)cc1,> 100 µM (inactive),> 100 µM (inactive),> 100 µM (inactive),10.1 µM (inactive),,> 100 µM (inactive),> 100 µM (inactive),> 100 µM (inactive),,59.4 µM (inactive),84.7 µM (inactive),19.8 µM (inactive),51.6 µM (inactive),> 100 µM (inactive),29.6 µM (inactive),2.74 µM (inactive),4.57 µM (inactive),10.7 µM (inactive),> 100 µM (inactive),> 100 µM (inactive)
S=c1sscc1N1CCSc2ssc(=S)c21,32.1 µM (inactive),> 100 µM (inactive),21.8 µM (inactive),8.36 µM (inactive),> 100 µM (inactive),28.4 µM (inactive),32.7 µM (inactive),19.9 µM (inactive),> 100 µM (inactive),19.8 µM (inactive),4.66 µM (inactive),48.1 µM (inactive),> 100 µM (inactive),,18.8 µM (inactive),14.5 µM (inactive),20.8 µM (inactive),67.1 µM (inactive),29.9 µM (inactive),> 100 µM (inactive)
CC(=O)Oc1c(-c2ccccc2)oc2ccccc12,2.96 µM (inactive),1.58 µM (inactive),3.96 µM (inactive),2.4 µM (inactive),2.06 µM (inactive),0.398 µM (active),2.11 µM (inactive),1.77 µM (inactive),0.678 µM (active),2.3 µM (inactive),2.88 µM (inactive),1.53 µM (inactive),1.35 µM (inactive),,1.53 µM (inactive),1.57 µM (inactive),1.98 µM (inactive),3.13 µM (inactive),1.61 µM (inactive),1.89 µM (inactive)
COc1cccc(OC)c1C1ON=C(c2ccccc2)N1C12CC3CC(CC(C3)C1)C2 (stereo not given),> 100 µM (inactive),,> 100 µM (inactive),10.9 µM (inactive),> 100 µM (inactive),> 100 µM (inactive),> 100 µM (inactive),> 100 µM (inactive),> 100 µM (inactive),31 µM (inactive),> 100 µM (inactive),66.5 µM (inactive),27.3 µM (inactive),38.1 µM (inactive),13.1 µM (inactive),20.7 µM (inactive),8.3 µM (inactive),> 100 µM (inactive),> 100 µM (inactive),84.5 µM (inactive)
N#Cc1c(C#N)c(-c2ccccc2)n(/N=C\c2ccccc2)c1N,23.8 µM (inactive),12.3 µM (inactive),35.2 µM (inactive),20.8 µM (inactive),13.2 µM (inactive),8.02 µM (inactive),11.8 µM (inactive),24.4 µM (inactive),,11.6 µM (inactive),18 µM (inactive),14.4 µM (inactive),11.4 µM (inactive),14.1 µM (inactive),30.8 µM (inactive),19.1 µM (inactive),3.37 µM (inactive),12.5 µM (inactive),19 µM (inactive),5.27 µM (inactive)
CCCCCCCCOc1ccc(/C=C/C2=[N+](CCO)CCO2)cc1,2.9 µM (inactive),3.08 µM (inactive),5 µM (inactive),2.34 µM (inactive),2.07 µM (inactive),,4.65 µM (inactive),2.23 µM (inactive),3.07 µM (inactive),2.02 µM (inactive),3.14 µM (inactive),2.94 µM (inactive),2.56 µM (inactive),2.54 µM (inactive),3.83 µM (inactive),2.67 µM (inactive),3.35 µM (inactive),4.28 µM (inactive),12.3 µM (inactive),3.65 µM (inactive)
CC(C)(Oc1ccc(C2C[C@H]2Cl)cc1)C(=O)O (stereo not given in full),> 100 µM (inactive),,> 100 µM (inactive),> 100 µM (inactive),> 100 µM (inactive),> 100 µM (inactive),> 100 µM (inactive),,> 100 µM (inactive),> 100 µM (inactive),,> 100 µM (inactive),> 100 µM (inactive),> 100 µM (inactive),> 100 µM (inactive),> 100 µM (inactive),15.3 µM (inactive),> 100 µM (inactive),,> 100 µM (inactive)
